Experimental data published in PMC8151276, “An Integrated Approach toward NanoBRET Tracers for Analysis of GPCR Ligand Engagement” (Molecules, 2021).

Molecular target: T1, FZD10 (Homo sapiens, UniProt Q9ULW2)
T1 construct: purchased Promega (in-house HiBiT-GPCR construct library, NanoBRET)
T1 sequence (Q9ULW2 21-581): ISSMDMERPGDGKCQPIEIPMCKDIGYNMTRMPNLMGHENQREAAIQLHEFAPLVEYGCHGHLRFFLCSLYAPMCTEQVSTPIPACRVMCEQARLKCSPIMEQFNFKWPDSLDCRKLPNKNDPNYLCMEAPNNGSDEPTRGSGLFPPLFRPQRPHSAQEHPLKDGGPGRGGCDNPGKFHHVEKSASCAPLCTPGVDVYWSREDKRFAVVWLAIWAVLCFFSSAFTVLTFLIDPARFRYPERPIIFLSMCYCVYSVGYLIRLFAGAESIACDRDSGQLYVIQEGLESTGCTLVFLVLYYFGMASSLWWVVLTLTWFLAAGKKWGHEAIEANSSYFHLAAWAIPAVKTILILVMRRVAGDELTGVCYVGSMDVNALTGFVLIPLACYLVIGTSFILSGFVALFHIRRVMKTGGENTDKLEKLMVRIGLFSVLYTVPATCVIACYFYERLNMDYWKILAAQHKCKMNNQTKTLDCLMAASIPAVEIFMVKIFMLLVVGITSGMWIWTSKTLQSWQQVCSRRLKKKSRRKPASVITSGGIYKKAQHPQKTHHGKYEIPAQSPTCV
Experiment: NanoBRET screen HiBiT-FZD10 in HEK293
Type: binding
Description: Each tracer candidate was screened across the entire library of HiBiT-GPCR constructs using NanoBRET as the detection modality. As depicted in Figure 4A, the specificity of interactions was evaluated through decrease in BRET due to competitive displacement of a bound tracer by excess parental compound. Each tracer was analyzed for binding to each HiBiT-GPCR fusion in the absence and in the presence of competing parental compound. Briefly, HEK293 cells were transfected with HiBiT-GPCR constructs diluted into promoterless DNA to reduce expression and maximize translocation to the cell surface. Each tracer candidate was then screened at concentrations of 1 μM and 0.1 μM across cells expressing these fusions. Cells were treated for 1.5 h with tracer either alone or in the presence of 20 μM competing parental compound (i.e., control). BRET was measured upon addition of purified LgBiT and subsequent complementation with HiBiT genetically fused to a GPCR. The specificity of interactions was assessed through a decrease in BRET signal due to competitive displacement of the bound tracer. To further gauge the robustness of these interactions, the fold response over the control (i.e., BRETtracer/BRETcontrol) was calculated. We chose a 1.5-fold response, which translates to ≥7-fold signal over noise as the minimal threshold required to score an interaction as positive.
HiBiT-GPCR DNA constructs were diluted in 10 mM Tris pH 8 to a final concentration of 0.01 μg/μL, arrayed in 96-well plates and stored at −20 °C. For transfection, HEK293 cells were suspended in Opti-MEM (without phenol red) supplemented with 2% fetal bovine serum (Seradigm) and 100 units/mL penicillin–streptomycin (Gibco) at a final concentration of 220,000 cells/mL and dispensed into white 96-well plates at 90 μL/well. Subsequent transfections and screens were carried using an Agilent Bravo Automated Liquid Handling Platform. First, the 96-well HiBiT DNA arrays were diluted 25-fold in Opti-MEM (without serum or phenol red) to a final concentration of 0.0004 μg/μL and 20 μL of the diluted DNAs were transferred into new 96-well plates. Next, promoterless carrier DNA (1 μg/μL) was diluted 25-fold (0.04 μg/μL) and then dispensed into the diluted arrays at 20 μL/well. Following brief mixing, Viafect transfection reagent (Promega) diluted 16-fold into Opti-MEM was dispensed into the plates at 40 μL/well. After mixing by pipetting, plates were incubated for 10 min on the pipetting station deck. The DNA-transfection reagent complexes were then added to plates containing cells. To facilitate the screen, 10 μL of DNA-transfection reagent complexes were added in duplicates to the top 4 and bottom 4 rows, resulting in two identical 48-well arrays per plate. Plates with transfected cells were incubated for 18–20 h at 37 °C/5% CO2. A screen of each tracer across the entire library using two different concentrations requires duplicate plates of transfected cells. Depending on the number of tracers being screened, transfections can be scaled up using the same ratios. The next day, for each tracer, four 20× screening solutions in tracer dilution buffer (Promega) were prepared: two duplicates at final concentration of 20 μM and two duplicates at a final concentration of 2 μM. […] The four resulting solutions were diluted 4-fold in Opti-MEM without serum or phenol red to generate 5× solutions (5 µM and 0.5 µM tracer +/− 100 μM competing compound). To screen the library, a BioTek MultiFlo FX liquid dispenser was used to dispense 22.5 µL of tracer solution to the top 4 rows and 22.5 µL tracer + competing compound solution to the 4 bottom rows. Plates were briefly mixed on an orbital shaker and incubated for 1.5 h at room temperature. […] Plates were briefly mixed on an orbital shaker and incubated for 15 min to allow complementation.

| SMILES | NanoBRET Fold Response (FZD10, tracer 1μM) | NanoBRET Fold Response (FZD10, tracer 0.1μM) | other results |
| --- | --- | --- | --- |
| CN1CCN(C2=Nc3cc(Cl)ccc3Nc3ccc(CNC(=O)CCOCCOCCOCCOCCNC(=O)CCc4ccc5n4[B-](F)(F)[N+]4=C(c6ccc[nH]6)C=CC4=C5)cc32)CC1 [Clozapine-b-2-NB590] | – | – | NanoBRET Fold Response (FZD10, 0.1μM tracer): 1.01; NanoBRET Fold Response (FZD10, 1μM tracer): 1.08 |
| CN(C)CCC=C1c2ccccc2CCc2ccc(C(=O)NCCNC(=O)CCOCCOCCOCCOCCNC(=O)CCc3ccc4n3[B-](F)(F)[N+]3=C(c5ccc[nH]5)C=CC3=C4)cc21 [Amitriptyline-b-2-NB590] | – | – | NanoBRET Fold Response (tracer at 0.1μM, listed as amitriptyline-b-2-NB590): 0.18; NanoBRET Fold Response (tracer at 1μM): 0.99 |
| CCOC(=O)c1cc(C#N)c(N2CCC(C(=O)NS(=O)(=O)Cc3ccccc3/C=C/C(=O)NCCNC(=O)CCc3ccc4n3[B-](F)(F)[N+]3=C(c5ccc[nH]5)C=CC3=C4)CC2)nc1C [AZD1283-1-NB590] | – | – | NanoBRET Fold Response (FZD10, 0.1μM): 1.01; NanoBRET Fold Response (FZD10, 1μM): 1.02 |
| CC(C)N(CC[C@H](c1ccccc1)c1cc(CCNC(=O)CCOCCOCCOCCOCCNC(=O)CCc2ccc3n2[B-](F)(F)[N+]2=C(c4ccc[nH]4)C=CC2=C3)ccc1O)C(C)C [Tolterodine-2-NB590] | 1.05 | – | – |
| CC(C)N(CC[C@H](c1ccccc1)c1cc(CCNC(=O)c2ccc(CNC(=O)CCc3ccc4n3[B-](F)(F)[N+]3=C(c5ccc[nH]5)C=CC3=C4)cc2)ccc1O)C(C)C [Tolterodine-BZ-NB590] | 1.06 | 0.97 | – |
| O=C(CCOCCOCCOCCOCCNC(=O)CCc1ccc2n1[B-](F)(F)[N+]1=C(c3ccc[nH]3)C=CC1=C2)NCCCN1CCN(C2=Nc3ccccc3Oc3ccc(Cl)cc32)CC1 [Loxapine-a-2-NB590] | 0.99 | 0.98 | – |
| CN1CCN(C2=Nc3cc(Cl)ccc3N(CC(=O)NCCOCCOCCOCCOCCNC(=O)CCc3ccc4n3[B-](F)(F)[N+]3=C(c5ccc[nH]5)C=CC3=C4)c3ccccc32)CC1 [Clozapine-c-2-NB590] | – | – | NanoBRET Fold Response (FZD10, 0.1μM tracer): 1.00 |
| CN(C)CCC=C1c2ccccc2CCc2ccc(C(=O)NCCNC(=O)CCOCCOCCOCCOCCNC(=O)CCc3ccc4n3[B-](F)(F)[N+]3=C(c5ccc[nH]5)C=CC3=C4)cc21 [Amitriptyline-a-2-NB590] | – | – | NanoBRET Fold Response (tracer at 0.1μM): 0.97; NanoBRET Fold Response (tracer at 1μM): 1.01 |
| Cc1nc2n(c(=O)c1CCN1CCC(c3noc4cc(F)ccc34)CC1)CCCC2OC(=O)NCCOCCOCCOCCOCCNC(=O)CCc1ccc2n1[B-](F)(F)[N+]1=C(c3ccc[nH]3)C=CC1=C2 (stereo not drawn) [Risperidone-2-NB590] | 1.04 | 1.00 | – |
| COc1ccc2[nH]c(-c3ccc(CNC(=O)CCOCCOCCOCCOCCNC(=O)CCc4ccc5n4[B-](F)(F)[N+]4=C(c6ccc[nH]6)C=CC4=C5)cc3)c(CCNC(C)=O)c2n1 [AzomelatoninICO9-2-NB590] | – | – | NanoBRET Fold Response (0.1μM tracer): 0.96; NanoBRET Fold Response (1μM tracer): 0.89 |
| COc1ccccc1N1CCN(CCCCN2C(=O)c3ccc(CNC(=O)CCOCCOCCOCCOCCNC(=O)CCc4ccc5n4[B-](F)(F)[N+]4=C(c6ccc[nH]6)C=CC4=C5)cc3C2=O)CC1 [NAN-190-2-NB590] | 1.04 | 0.99 | – |
| O=C(CCc1ccc2n1[B-](F)(F)[N+]1=C(c3ccc[nH]3)C=CC1=C2)NCCOCCOCCNC(=O)OCCOCCN1CCN(C2=Nc3ccccc3Sc3ccccc32)CC1 [Quetiapine-a-2-NB590] | 0.80 | 0.92 | – |
| O=C(CCOCCOCCOCCOCCNC(=O)CCc1ccc2n1[B-](F)(F)[N+]1=C(c3ccc[nH]3)C=CC1=C2)NCCCN1CCN(C2=Nc3cc(Cl)ccc3Nc3ccccc32)CC1 [Clozapine-a-2-NB590] | – | – | NanoBRET Fold Response (FZD10, 0.1μM tracer): 1.01; NanoBRET Fold Response (FZD10, 1μM tracer): 0.99 |
| N#CN=C(NCCCOc1cccc(CN2CCCCC2)c1)NCCNC(=O)CCOCCOCCOCCOCCNC(=O)CCc1ccc2n1[B-](F)(F)[N+]1=C(c3ccc[nH]3)C=CC1=C2 [Aminopotentidine-2-NB590] | 0.99 | 0.99 | – |
| O=C(CCc1ccc2n1[B-](F)(F)[N+]1=C(c3ccc[nH]3)C=CC1=C2)NCc1ccc(C(=O)NCCOCCOCCNCC(O)COc2cccc3ccccc23)cc1 (stereo not drawn) [Propranolol-3-NB590] | – | – | NanoBRET Fold Response (FZD10, 0.1μM): 1.04; NanoBRET Fold Response (FZD10, 1μM): 1.02 |
| O=C(CCc1ccc2n1[B-](F)(F)[N+]1=C(c3ccc[nH]3)C=CC1=C2)NCc1ccc(C(=O)NCCOCCC(=O)N[C@@H]2CC[C@@]3(O)[C@H]4Cc5ccc(O)c6c5[C@@]3(CCN4CC3CC3)[C@H]2O6)cc1 [Naltrexone-3-NB590] | 1.06 | 0.66 | – |
| COc1ccccc1N1CCN(CCCCN2C(=O)c3ccc(CNC(=O)CCOCCNC(=O)c4ccc(CNC(=O)CCc5ccc6n5[B-](F)(F)[N+]5=C(c7ccc[nH]7)C=CC5=C6)cc4)cc3C2=O)CC1 [NAN-190-3-NB590] | 0.79 | 0.92 | – |
| Cc1cc2c(s1)Nc1ccccc1N=C2N1CCN(CCCNC(=O)CCOCCOCCOCCOCCNC(=O)CCc2ccc3n2[B-](F)(F)[N+]2=C(c4ccc[nH]4)C=CC2=C3)CC1 [Olanzapine-a-2-NB590] | 0.99 | 0.98 | – |
| CCCn1c(=O)c2[nH]c(-c3ccc(OCC(=O)NCCNC(=O)CCOCCNC(=O)c4ccc(CNC(=O)CCc5ccc6n5[B-](F)(F)[N+]5=C(c7ccc[nH]7)C=CC5=C6)cc4)cc3)nc2n(CCC)c1=O [XAC-3-NB590] | 0.99 | 1.05 | – |
| CN(CCC=C1c2ccccc2CCc2ccccc21)C(=O)CCOCCOCCOCCOCCNC(=O)CCc1ccc2n1[B-](F)(F)[N+]1=C(c3ccc[nH]3)C=CC1=C2 [Amitriptyline-e-2-NB590] | – | – | NanoBRET Fold Response (tracer at 1μM): 1.01 |
| COc1ccc2c(n1)c(CCNC(C)=O)cn2CCNC(=O)CCc1ccc2n1[B-](F)(F)[N+]1=C(c3ccc[nH]3)C=CC1=C2 [Azamelatonin-1-NB590] | – | – | NanoBRET Fold Response (0.1μM tracer): 0.93; NanoBRET Fold Response (1μM tracer): 0.93 |
